Results taken from publication PMC11352099 (RSC Medicinal Chemistry, 2024).
Where two headings read alike, the source gives them in different places.

What was measured:
SARS-CoV-2 nsp14 MTase = SARS-CoV-2 nsp14 MTase (Severe acute respiratory syndrome coronavirus 2, UniProt P0DTD1); assay: biochemical; type: biochemical; conditions: for IC50: read-out: IC50
in vitro [1] = conditions: mouse, plasma
[2] = 120 min, 10 μM
[3] = microsomes, 0.75 h, 10 µM, pH 7.4
in vitro [4] = conditions: human
[5] = system: SARS-CoV-2 strain hCoV-19/Czech Republic/NRL_6632_2/2020; assay: microbe, parasite or virus in culture; type: cell-based; conditions: Calu-3 cell line
[6] = 120 min, 10 μM; remark: listed apart in the source
human RNMT = human RNMT (Homo sapiens, UniProt O43148); assay: Off-target inhibition of human RNMT; type: biochemical; conditions: 25 μM concentration of inhibitor
Sequence of human RNMT (O43148 whole entry): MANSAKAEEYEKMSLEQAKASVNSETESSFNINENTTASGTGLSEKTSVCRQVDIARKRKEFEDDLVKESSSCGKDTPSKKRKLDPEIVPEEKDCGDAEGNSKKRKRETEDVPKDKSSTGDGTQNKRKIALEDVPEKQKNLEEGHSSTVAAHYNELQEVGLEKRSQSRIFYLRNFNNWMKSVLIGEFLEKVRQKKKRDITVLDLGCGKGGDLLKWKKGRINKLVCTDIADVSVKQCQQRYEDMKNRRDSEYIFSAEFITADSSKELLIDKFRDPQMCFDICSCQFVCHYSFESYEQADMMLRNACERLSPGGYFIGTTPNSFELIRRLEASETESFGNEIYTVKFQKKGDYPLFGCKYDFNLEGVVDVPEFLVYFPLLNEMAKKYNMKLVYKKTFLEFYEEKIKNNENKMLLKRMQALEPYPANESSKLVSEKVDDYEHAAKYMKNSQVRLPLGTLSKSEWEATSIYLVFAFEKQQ
Description: Human cells rely on several MTases; therefore, it is necessary to assess the possible off-target effect. […]

[7] = microsomes, 0.75 h, 10 µM, pH 7.4; remark: listed apart in the source
in vitro [8] = conditions: human; remark: listed apart in the source
Procedure: (§1) 3.5. Caco-2 permeability assay
(§2) Transepithelial bi-directional transport of compounds (10 µM, pH 7.4/7.4) was tested on 21-day differentiated Caco-2 monolayers. Briefly, the cells were seeded at a density of 67 ,500 cells per 96-well plate insert (Millicell®, Merck KGaA, Darmstadt, Germany). They were left to differentiate for 21 days with medium exchange every 2–3 days. Prior to the experiment, the medium from both apical and basolateral well was exchanged for HBSS buffer (containing 10 mM HEPES and 25 mM glucose) and left to equilibrate for 30 min. Compound permeability was assayed by replacing pure HBSS with HBSS containing 10 μM compounds and 220 μM Lucifer yellow (LY) solution in an apical insert (A to B transport) or in a basolateral well (B to A transport). The tre ated cells were then returned to the incubator for 2 h at 37 °C. After that, samples were collected from both apical inserts and basolateral wells and analyzed using LC -MS/MS (SCIEX Triple Quad™ 7500 QTRAP® Ready). LC separation was done on Synergi 4µm Fusion 50 × 2 mm column (Phenomenex) using a water/acetonitrile gradient with 0.1% formic acid starting from 2 to 98% for 4.5 min.
(§3) The apparent permeability coefficient (Papp) was calculated from t he following equation: Papp = (dQ / dt) / C0 * A, where dQ/dt is the rate of absorption of the drug across the cells, C0 is the donor compartment concentration at time zero, and A is the area of the monolayer. Efflux ratio was expressed as (Papp B -A) / (Papp A-B). Recovery (%) was determined as (total compound mass i n donor and receiver compartments at the end of the incubation / initial compound mass in the donor compartment) x 100. The data represent means ± SD of two independent experiments performed in triplicate. […]
(§4) were used as control compounds.

Caco-2 monolayers = assay: in vitro; conditions: Caco-2
Procedure: as §1, §2, §3, §4

Cc1cc(=O)[nH]c2cc(NC(=O)[C@H]3O[C@@H](n4cc(C#Cc5cncnc5)c5c(N)ncnc54)[C@H](O)[C@@H]3O)ccc12 [18n]
IC50 (SARS-CoV-2 nsp14 MTase; Table 1 and text, N.I., no inhibition): 0.043 ± 0.005 µM | Hill slope (SARS-CoV-2 nsp14 MTase; Table S1, dose-response curve, variable slope model): -1.29 | IC50 (SARS-CoV-2 nsp14 MTase; values printed in Fig. 3 (correlation with GlideScore XP)): 0.04 µM | half-life at 2 h, 10 µM (in vitro [1]): 1.57 h | Plasma stability % of the parent compound after 120 min, Mouse [2]: 41 ± 0.7% | Microsomal stability % of the parent compound after 45 min, Human [3]: 90 ± 2.0% | CC50 at 3 days (in vitro [4]): > 50 µM | EC50 ([5]; Severe acute respiratory syndrome coronavirus 2, 72 h, MOI ∼0.01, 3 days, read-out: EC50 (antiviral effect)): 10 ± 3 µM | EC50 ([5]; Severe acute respiratory syndrome coronavirus 2, Table S3, read-out: EC50): 9.8 µM | Plasma stability % of the parent compound after 120 min, Human [6]: 93 ± 0.4% | inhibitory activity against RNMT (human RNMT): None of the tested compounds exhibited any inhibitory activity | Microsomal stability % of the parent compound after 45 min, Mouse [7]: 85 ± 0.6% | efflux ratio at 2 h, 10 µM (in vitro [8]; Caco-2): 0.6 | recovery at 2 h, 10 µM (in vitro [8]; Caco-2, Recovery (%) A-B): 148% | recovery at 2 h, 10 µM (in vitro [8]; Caco-2, Recovery (%) B-A): 110% | Papp A→B at 2 h, 10 µM (in vitro [8]; Caco-2, pH 7.4): 11.3 ± 3.7 ×10⁻⁶ cm/s | Papp B→A at 2 h, 10 µM (in vitro [8]; Caco-2, pH 7.4): 7.3 ± 1.3 ×10⁻⁶ cm/s | Papp A-B (Caco-2 monolayers): 11.3 ± 3.7 cm/s x 10-6 | Papp B-A (Caco-2 monolayers): 7.3 ± 1.3 cm/s x 10-6
